Experimental data from PMC5119973 (Cancer Medicine, 2016).
Where “and” joins values, the source holds several entries; their conditions need not be identical. Identical values can stand only once.

Key:
DDR1 = molecular target: T1, DDR1 (Homo sapiens, UniProt Q08345); experiment: KINOMEscan active-site competitive binding assay; settings: slash = two separate measurements
T1 construct: purchased DiscoveRx (KINOMEscan service)

DDR2 = molecular target: T2, DDR2 (Homo sapiens, UniProt Q16832); experiment: KINOMEscan active-site competitive binding assay; settings: slash = two separate measurements
T2 construct: purchased DiscoveRx (KINOMEscan service)
T2 sequence (Q16832 22-855): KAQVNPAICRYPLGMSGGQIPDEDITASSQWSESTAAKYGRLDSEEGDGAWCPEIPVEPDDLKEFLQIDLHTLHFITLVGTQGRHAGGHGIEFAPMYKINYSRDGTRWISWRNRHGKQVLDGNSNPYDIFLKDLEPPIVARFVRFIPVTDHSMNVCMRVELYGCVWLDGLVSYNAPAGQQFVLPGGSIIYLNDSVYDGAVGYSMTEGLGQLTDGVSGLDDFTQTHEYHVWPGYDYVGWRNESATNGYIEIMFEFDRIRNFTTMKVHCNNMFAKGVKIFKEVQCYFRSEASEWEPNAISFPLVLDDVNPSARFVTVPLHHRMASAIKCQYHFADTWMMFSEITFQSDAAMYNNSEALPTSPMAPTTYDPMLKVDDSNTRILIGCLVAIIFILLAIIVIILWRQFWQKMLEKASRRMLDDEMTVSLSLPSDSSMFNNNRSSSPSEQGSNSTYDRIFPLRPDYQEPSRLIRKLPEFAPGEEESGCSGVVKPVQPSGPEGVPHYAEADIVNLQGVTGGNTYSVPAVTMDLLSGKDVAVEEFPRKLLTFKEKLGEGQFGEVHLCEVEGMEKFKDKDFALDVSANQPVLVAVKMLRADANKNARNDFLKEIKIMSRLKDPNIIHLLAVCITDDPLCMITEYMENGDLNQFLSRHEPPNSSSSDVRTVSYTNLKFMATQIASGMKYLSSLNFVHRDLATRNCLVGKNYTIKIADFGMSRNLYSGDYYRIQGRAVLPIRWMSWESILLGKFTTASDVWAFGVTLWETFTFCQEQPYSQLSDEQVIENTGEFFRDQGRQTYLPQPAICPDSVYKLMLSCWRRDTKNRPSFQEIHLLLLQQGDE

JNK2 = molecular target: T3, JNK2 (Homo sapiens, UniProt P45984); experiment: KINOMEscan active-site competitive binding assay; settings: slash = duplicate values
T3 construct: purchased DiscoveRx (KINOMEscan service)

MAP4K4 = molecular target: T4, MAP4K4 (Homo sapiens, UniProt O95819); experiment: KINOMEscan active-site competitive binding assay; settings: slash = two separate measurements
T4 construct: purchased DiscoveRx (KINOMEscan service)

TAOK3 = molecular target: T5, TAOK3 (Homo sapiens, UniProt Q9H2K8); experiment: KINOMEscan active-site competitive binding assay; settings: slash = duplicate values
T5 construct: purchased DiscoveRx
T5 sequence (Q9H2K8 1-898): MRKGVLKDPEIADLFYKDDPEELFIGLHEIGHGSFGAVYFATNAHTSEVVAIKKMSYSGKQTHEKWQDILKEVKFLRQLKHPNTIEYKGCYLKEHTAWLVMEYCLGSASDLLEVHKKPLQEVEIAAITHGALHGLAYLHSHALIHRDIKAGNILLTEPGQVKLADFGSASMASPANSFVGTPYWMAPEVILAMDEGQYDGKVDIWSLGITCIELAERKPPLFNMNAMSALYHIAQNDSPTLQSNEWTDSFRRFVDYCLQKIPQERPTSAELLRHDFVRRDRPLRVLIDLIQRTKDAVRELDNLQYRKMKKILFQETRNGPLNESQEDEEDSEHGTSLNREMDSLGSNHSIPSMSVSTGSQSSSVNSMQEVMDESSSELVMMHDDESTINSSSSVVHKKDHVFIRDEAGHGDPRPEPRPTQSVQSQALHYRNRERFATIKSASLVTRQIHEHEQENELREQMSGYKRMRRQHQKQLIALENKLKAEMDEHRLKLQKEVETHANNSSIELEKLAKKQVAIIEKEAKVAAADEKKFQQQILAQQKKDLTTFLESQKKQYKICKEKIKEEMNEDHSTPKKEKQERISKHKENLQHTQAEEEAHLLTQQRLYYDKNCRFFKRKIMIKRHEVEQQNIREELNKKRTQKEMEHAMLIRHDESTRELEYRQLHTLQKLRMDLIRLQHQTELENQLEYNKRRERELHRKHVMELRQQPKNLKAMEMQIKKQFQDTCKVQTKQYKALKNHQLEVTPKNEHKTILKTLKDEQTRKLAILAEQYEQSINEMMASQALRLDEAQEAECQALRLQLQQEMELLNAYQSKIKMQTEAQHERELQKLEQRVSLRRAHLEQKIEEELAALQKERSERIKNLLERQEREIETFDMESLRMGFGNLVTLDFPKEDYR

[1] = tested on: EGFR family kinases, the protein kinase C family, insulin and insulin‐like growth factor receptor kinases, MET, MEK family kinases (with the exception of …); experiment: KINOMEscan active-site competitive binding assay, kinases not inhibited; settings: concentrations up to 1 μmol/L; data not shown
[2] = Plasma protein binding in vitro (Transil), human plasma; format: in vitro ADME; settings: for Proportion of protein‐bound drug / Unbound fraction, fold lower than that of regorafenib / Major plasma protein to which the compound was bound: human plasma; for Major plasma protein to which the compound was bound: data not shown; for Unbound fraction, fold lower in human than in murine plasma: human versus murine plasma
Description: A radioactivity analysis was performed by liquid scintillation counting. […] All compounds were tested for stability at the incubation conditions used.

[3] = human, male, plasma, arithmetic mean ± SD

T4 sequence (O95819 whole entry): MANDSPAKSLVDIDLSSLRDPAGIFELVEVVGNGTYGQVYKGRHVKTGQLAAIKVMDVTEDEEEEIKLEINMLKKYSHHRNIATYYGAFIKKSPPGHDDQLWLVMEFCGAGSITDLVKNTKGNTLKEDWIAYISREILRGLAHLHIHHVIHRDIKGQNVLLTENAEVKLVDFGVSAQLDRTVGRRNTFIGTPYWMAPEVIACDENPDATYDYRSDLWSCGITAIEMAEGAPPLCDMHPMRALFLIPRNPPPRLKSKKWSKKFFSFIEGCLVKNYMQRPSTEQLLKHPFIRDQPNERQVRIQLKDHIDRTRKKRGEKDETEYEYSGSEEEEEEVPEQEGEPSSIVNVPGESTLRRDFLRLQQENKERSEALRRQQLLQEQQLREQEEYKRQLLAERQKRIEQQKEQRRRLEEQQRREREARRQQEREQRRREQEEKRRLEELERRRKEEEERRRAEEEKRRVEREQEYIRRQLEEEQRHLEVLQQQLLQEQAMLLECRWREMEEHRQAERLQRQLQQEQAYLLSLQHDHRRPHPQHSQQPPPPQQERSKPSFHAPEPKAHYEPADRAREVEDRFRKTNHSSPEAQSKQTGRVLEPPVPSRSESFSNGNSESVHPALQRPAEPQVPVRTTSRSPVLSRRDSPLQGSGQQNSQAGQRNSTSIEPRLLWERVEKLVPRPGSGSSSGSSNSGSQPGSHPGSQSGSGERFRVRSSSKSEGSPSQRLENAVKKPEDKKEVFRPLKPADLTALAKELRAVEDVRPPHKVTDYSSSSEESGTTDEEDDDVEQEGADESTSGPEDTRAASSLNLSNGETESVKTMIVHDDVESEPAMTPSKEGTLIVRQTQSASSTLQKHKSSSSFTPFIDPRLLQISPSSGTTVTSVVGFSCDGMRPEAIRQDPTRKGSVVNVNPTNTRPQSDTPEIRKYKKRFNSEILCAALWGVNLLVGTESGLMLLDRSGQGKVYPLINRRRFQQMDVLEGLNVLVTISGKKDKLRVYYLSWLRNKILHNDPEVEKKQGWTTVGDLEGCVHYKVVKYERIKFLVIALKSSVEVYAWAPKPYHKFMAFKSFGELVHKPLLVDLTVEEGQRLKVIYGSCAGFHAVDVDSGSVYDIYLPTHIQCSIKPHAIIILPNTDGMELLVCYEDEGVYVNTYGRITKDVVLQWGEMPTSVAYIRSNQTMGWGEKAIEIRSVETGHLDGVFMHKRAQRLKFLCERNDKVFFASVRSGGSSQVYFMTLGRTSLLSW
T3 sequence (P45984 whole entry): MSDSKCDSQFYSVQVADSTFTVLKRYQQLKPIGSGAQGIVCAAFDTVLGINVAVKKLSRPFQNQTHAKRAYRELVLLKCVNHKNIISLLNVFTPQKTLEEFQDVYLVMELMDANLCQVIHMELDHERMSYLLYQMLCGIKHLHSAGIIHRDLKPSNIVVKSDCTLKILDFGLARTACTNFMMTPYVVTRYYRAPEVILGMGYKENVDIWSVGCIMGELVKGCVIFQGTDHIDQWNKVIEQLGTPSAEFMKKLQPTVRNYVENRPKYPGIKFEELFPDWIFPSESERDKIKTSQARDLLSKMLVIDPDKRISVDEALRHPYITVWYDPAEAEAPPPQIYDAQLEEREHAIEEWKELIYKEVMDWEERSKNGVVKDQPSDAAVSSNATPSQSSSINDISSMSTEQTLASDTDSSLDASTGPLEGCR
T1 sequence (Q08345 19-913): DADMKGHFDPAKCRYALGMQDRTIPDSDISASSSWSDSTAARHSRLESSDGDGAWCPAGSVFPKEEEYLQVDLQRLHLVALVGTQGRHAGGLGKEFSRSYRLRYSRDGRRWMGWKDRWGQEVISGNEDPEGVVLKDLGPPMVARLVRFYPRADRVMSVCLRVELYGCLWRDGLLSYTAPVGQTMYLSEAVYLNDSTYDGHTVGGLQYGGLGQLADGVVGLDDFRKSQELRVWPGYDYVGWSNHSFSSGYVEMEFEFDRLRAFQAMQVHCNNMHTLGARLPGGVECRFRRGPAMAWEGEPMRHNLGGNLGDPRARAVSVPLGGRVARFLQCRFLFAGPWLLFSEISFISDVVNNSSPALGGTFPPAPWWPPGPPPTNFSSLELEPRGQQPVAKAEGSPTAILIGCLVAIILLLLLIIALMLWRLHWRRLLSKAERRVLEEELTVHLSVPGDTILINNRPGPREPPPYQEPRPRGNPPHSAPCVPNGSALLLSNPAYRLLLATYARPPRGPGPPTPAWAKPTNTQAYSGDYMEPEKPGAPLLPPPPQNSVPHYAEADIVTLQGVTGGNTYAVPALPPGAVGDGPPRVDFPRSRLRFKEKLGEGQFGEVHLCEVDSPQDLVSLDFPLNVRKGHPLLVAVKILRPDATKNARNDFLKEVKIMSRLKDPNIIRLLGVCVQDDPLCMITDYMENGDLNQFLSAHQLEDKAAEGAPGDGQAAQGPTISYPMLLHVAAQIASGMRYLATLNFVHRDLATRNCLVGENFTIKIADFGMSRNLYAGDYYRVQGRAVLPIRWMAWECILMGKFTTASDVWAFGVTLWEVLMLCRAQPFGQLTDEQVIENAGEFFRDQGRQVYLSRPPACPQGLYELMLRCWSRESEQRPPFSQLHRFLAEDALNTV

CNC(=O)c1cc(Oc2ccc(NC(=O)Nc3ccc(Cl)c(C(F)(F)F)c3)c(F)c2)cc[n+]1[O-] [M‐2]
Kd (DDR1): 0.5 nM | Kd (DDR2): 5.3 nM | Kd (JNK2): 67 nM and 44 nM | Kd (MAP4K4): 42 nM | Kd (TAOK3): 94 nM and 77 nM | Inhibition of binding [1]: No inhibition | Proportion of protein‐bound drug [2]: more than 99% | Unbound fraction, fold lower than that of regorafenib [2]: about 2.5 fold | Major plasma protein to which the compound was bound [2]: albumin | Unbound fraction, fold lower in human than in murine plasma [2]: ~ 5 fold | Unbound fraction (%) [2, 3]: 0.188 ± 0.004%

NC(=O)c1cc(Oc2ccc(NC(=O)Nc3ccc(Cl)c(C(F)(F)F)c3)c(F)c2)cc[n+]1[O-] [M‐5]
Kd (DDR1): 0.4 nM | Kd (DDR2): 2.5 nM | Kd (JNK2): 670 nM | Kd (MAP4K4): 89 nM | Kd (TAOK3): 450 nM | Inhibition of binding [1]: No inhibition | Proportion of protein‐bound drug [2]: more than 99% | Unbound fraction, fold lower than that of regorafenib [2]: approximately 10 fold | Major plasma protein to which the compound was bound [2]: albumin | Unbound fraction, fold lower in human than in murine plasma [2]: ~ 8 fold | Unbound fraction (%) [2, 3]: 0.053 ± 0.013%

CNC(=O)c1cc(Oc2ccc(NC(=O)Nc3ccc(Cl)c(C(F)(F)F)c3)c(F)c2)ccn1 [Regorafenib, reference compound]
Kd (DDR1): 0.9 nM and 0.8 nM | Kd (DDR2): 9.2 nM and 9.7 nM | Kd (JNK2): 1400 nM and 1900 nM | Kd (MAP4K4): 450 nM and 400 nM | Kd (TAOK3): 200 nM and 290 nM | Inhibition of binding [1]: No inhibition | Proportion of protein‐bound drug [2]: more than 99% | Major plasma protein to which the compound was bound [2]: albumin | Unbound fraction (%) [2, 3]: 0.488 ± 0.091% | fraction unbound ([2]; male, human, plasma, arithmetic mean ± SD): ~0.005
